Assay results published in PubChem BioAssay AID179 (DTP/NCI, 2004).
The source made the active and inactive calls.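 Rule for the calls: active = compounds giving half or more protection of infected cells from virus-caused growth loss, again on retest; inactive = the rest.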 Where a SMILES comes first, the peptide text is derived from it. The star is where a group is joined. Cbz = O=C(OCc1ccccc1)*

Tested on: CEM cells HIV-1 protection, formazan growth assay
Assay: NCI AIDS Antiviral Assay
Conditions: for IC50: measured here: growth of uninfected CEM cells
Procedure, shortened: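 Screen of anti-HIV-1 activity in human CEM cells using a formazan-based growth measurement at five drug concentrations. Hits with 50% or greater protection were repeated, and confirmation required reproducible complete protection.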

| Structure (SMILES) | EC50 [µM] | IC50 [µM] | outcome |
| --- | --- | --- | --- |
| O=C(c1ccccc1)c1ccc(OCCOc2ccc(Nc3ccccc3)cc2)cc1 | > 6.61 | > 6.61 |  |
| CCCCCCOC(=O)c1[nH]c(=O)n(CCCCCC)c(=O)c1N | > 200 | 151 |  |
| CCCCc1cc(=O)oc2c3c(c4c(c12)OC(C)(C)C=C4)O[C@H](C)[C@@H](C)[C@H]3O | > 63.1 | 15.5 |  |
| CCOC(=O)Nc1ccc2nc(N3CCCCC3)sc2c1 | > 85.1 | 6.31 |  |
| COC(=O)[C@@]1(C)CCC[C@]2(C(=O)O)C3Cc4occc4[C@H](C)[C@@H]3CCC21 (stereo partly drawn) | > 200 | 105 |  |
| CN(CC(=O)O)S(=O)(=O)c1ccc(Cl)cc1 |  |  | inactive |
| CSCCC(NC(=O)OCc1ccccc1)NC(=O)OCc1ccccc1 | > 200 | > 200 |  |
| COCCOCCOC(=O)C(CO)(CC(CO)(C(C)=O)C(=O)OCCOCCOC)C(C)=O (stereo not drawn) | > 200 | > 200 |  |
| Cc1cc(C)nc(NC(=S)Nc2ccc([N+](=O)[O-])cc2)c1 | > 200 | > 200 |  |
| O=C(Nc1ccc(Cl)cc1)P(=O)(O)c1ccccc1 | > 200 | > 200 |  |
| COc1cc2c(c(O)c1OC)CC1CCC(=O)N1C2c1cccc2ccccc12 (stereo not drawn) | > 200 | 17.4 |  |
| CCN(CC)c1ccc2cc(-c3csc(-c4ccc(N(C)C)cc4)n3)c(=O)oc2c1 | > 100 | 10 |  |
| Cn1c2ccccc2n2c3ccccc3c(=S)c(C#N)c12 | > 100 | > 100 |  |
| CC1(C)OC(=O)C(C(N)=O)=C1/C=C1\OC(=O)c2ccccc21 | > 24 | > 24 |  |
| COc1cc(/C=C2\SC(=S)N(/C=C(/C#N)C(=O)c3ccc4ccccc4c3)C2=O)cc(OC)c1OC | > 200 | 14.8 |  |
| COC1=Nc2ccccc2S(=O)(=O)C=C1 | > 398 | 0.813 |  |
| Nc1nc2c(ncn2C2C=CC(CO)CC2)c(=O)[nH]1 (stereo not drawn) | > 200 | > 200 |  |
| Nc1nc(N)c2nc(CNc3ccc(C(=O)NC(CCC(=O)O)C(=O)O)cc3F)cnc2n1 (stereo not drawn) | > 200 | 0.0631 |  |
| N#Cc1[nH]c(=O)n(-c2ccc(Cl)cc2)c1N | > 200 | > 200 |  |
| COC(=O)[C@H](Cc1c[nH]c2ccccc12)NP(=O)(OCCC#N)OCC1OC(n2cc(C)c(=O)[nH]c2=O)CC1N=[N+]=[N-] (stereo partly drawn) | 55 | 186 |  |
| CCN(CC)CCCC(C)Nc1cc(-c2ccccc2)nc2cc(Cl)ccc12 (stereo not drawn) | > 427 | 2.45 |  |
| COC(=O)CC(C(C(=O)OCc1ccccc1)C(C)O)N1C(=O)OCC1c1ccccc1 (stereo not drawn) | > 200 | 123 |  |

| Structure (SMILES) | EC50 [µM] | IC50 [µM] | outcome |
| --- | --- | --- | --- |
| CCOc1ccc2nc3nc(=O)[nH]c(C)c3c(NC(C)(CO)CO)c2c1 | > 200 | > 200 |  |
| C=C1c2ccccc2CCN1CC(=O)CC1C=CCS1(=O)=O (stereo not drawn) | > 407 | > 407 |  |
| C=C1C(=O)OC2C1CC[C@H](C)C1(O)C(O)CC(=O)[C@@]21C (stereo partly drawn) |  |  | inactive |
| CC1(C)C(=O)C(C)(C)C1O | > 1780 | > 1780 |  |
| Clc1ccc(-c2nn3c(CCCCCCCCc4nnc5sc(-c6ccc(Cl)cc6)nn45)nnc3s2)cc1 | > 200 | 19.1 |  |
| O=C(O)CCC(NC(=O)c1ccccc1C(=O)O)C(=O)O (stereo not drawn) | > 200 | > 200 |  |
| O=C(Nc1ccc(CC2=NCCCN2)cc1)c1ccc(C(=O)Nc2ccc(CC3=NCCCN3)cc2)cc1 | > 200 | 112 |  |
| CC(C)c1ccc(/C(C(=O)O)=C(\O)C(=O)O)cc1 | > 200 | 107 |  |
| CC1=NN(C(=O)c2ccc(Cl)cc2)C(=O)/C1=C/c1ccc(Cl)cc1 | > 10.5 | > 10.5 |  |
| COc1ccc(-c2[nH]c3ccccc3c2-c2ccc(OC)cc2)cc1 | > 200 | 12.9 |  |
| Cc1cc(O)ccc1C1(c2ccc(O)cc2C)OS(=O)(=O)c2ccccc21 |  |  | inactive |
| Cc1ccc(NC(=O)CCC(CC(=O)C(C)(C)C)=NNC(=O)C(=O)NN)cc1C | > 3.63 | 2.57 |  |
| N[C@@H]1c2c(Br)sc(N3CCOCC3)c2C(=O)[C@@H]1O | > 200 | 105 |  |
| COC1(OC)CC2OC1C1N=NN(C(=O)OC(C)(C)C)C21 (stereo not drawn) | > 33.1 | > 33.1 |  |
| CCc1cccc(C)c1NC(=O)CCc1nnc(SC)o1 | > 162 | > 162 |  |
| COC(=O)Nc1cn2nc(C)sc2n1 | > 200 | > 200 |  |
| CP(=O)(O)C(N)Cc1c[nH]c2ccccc12 (stereo not drawn) | > 100 | > 100 |  |
| Cn1c2ccc([N+](=O)[O-])cc2c(=O)c2c(O)cc(O)cc21 | > 200 | 19.1 |  |
| O=C(Nc1ccc(I)cc1)c1ccccc1[Se][Se]c1ccccc1C(=O)Nc1ccc(I)cc1 | > 4.68 | > 4.68 |  |
| CC(=O)C(=Cc1ccc(O)cc1)C(C)=O | > 1230 | 75.9 |  |
| NC(N)=NCCCC(N=c1c2ccccc2n(O)c2ccccc12)C(=O)O (stereo not drawn) |  |  | inactive |
| CC(C)(C)N/N=C(\Cc1occc(=O)c1O)C(=O)Nc1ccc([N+](=O)[O-])cc1[N+](=O)[O-] | > 158 | > 158 |  |

| Structure (SMILES) | EC50 [µM] | IC50 [µM] | outcome |
| --- | --- | --- | --- |
| COc1cc(C2c3cc4c(cc3OC(NN=C(C)C)C2C)OCO4)cc(OC)c1O (stereo not drawn) | > 200 | 5.5 |  |
| CCOC(=O)Nc1nc2cc(C(=O)OCC)n(C)c2s1 | > 200 | > 200 |  |
| C=COC(=O)N1C2CCCC(Cl)(C(C)=O)C1CC2 (stereo not drawn) | > 200 | 55 |  |
| CC(=O)OCC1OC(n2c3c(c(-c4ccc(Cl)cc4)c(C#N)c2=S)C(=O)CC(C)(C)C3)C(OC(C)=O)C(OC(C)=O)C1OC(C)=O (stereo not drawn) | > 200 | 6.46 |  |
| Cc1ccccc1C1OC(=O)c2ccccc21 (stereo not drawn) | > 158 | 97.7 |  |
| COc1cc(NCC(C#N)C#N)ccc1N=Nc1ccc(Cl)cc1 | > 21.4 | > 21.4 |  |
| CC1CC[C@@]2(O)C(CCCC2(C)C)[C@]1(C)CCc1ccoc1 (stereo partly drawn) |  |  | inactive |
| O=C(C1OC1c1ccc(Br)cc1O)C12CC3CC(CC(C3)C1)C2 (stereo not drawn) | > 200 | 110 |  |
| CC(C)C(=O)NC(=S)Nc1ccc([N+](=O)[O-])cc1C#N | > 123 | > 123 |  |
| CC(C)CC(NC(=O)C(Cc1cnc[nH]1)NC(=O)C(CC(N)=O)NC(=O)C(NC(=O)C(CO)NC(=O)C(Cc1ccc(O)cc1)NC(=O)C(CO)NC(=O)C(C)N)C(C)O)C(=O)O (stereo not drawn) (H-ASYSTNHL-OH; configuration not given here) | > 70.8 | > 70.8 |  |
| Oc1ccc(CCC2CCNc3ccccc32)cc1 (stereo not drawn) | > 5.01 | > 5.01 |  |
| CC(=O)OCC1OC(n2c3c(cc(C#N)c2=S)CCCCCC3)C(OC(C)=O)C(OC(C)=O)C1OC(C)=O (stereo not drawn) | > 200 | 52.5 |  |
| Cc1n[nH]c(=O)n1-n1cccc1 | > 200 | > 200 |  |
| CC(C)Oc1nc(N2CCNCC2)nc2c1CCC2 | > 200 | 39.8 |  |
| O=[N+]([O-])c1cc2cnn(CO)c2cc1[N+](=O)[O-] | > 200 | 16.6 |  |
| CC(C)(C)c1cc(CCC(=O)Nc2ccc(Cl)cc2Cl)nc(N)n1 | > 135 | > 135 |  |
| CC(C)=C1CC(C)(C)N=C1CCN1CCOCC1 | > 200 | 2.95 |  |
| O=C(Nn1c(-c2ccccc2)nc2ccccc2c1=O)c1cccc([N+](=O)[O-])c1 | > 200 | 166 |  |
| Cc1cccc(/C=C2\CCCCCC2=O)c1 | > 200 | 53.7 |  |
| Cc1nc2c(C)ccc([N+](=O)[O-])c2c(NCCCN(C)C)c1C | > 200 | 69.2 |  |
| O=c1[nH]c2ccc([As](=O)(O)O)cc2[nH]1 | > 200 | > 200 |  |
| ClCCC[Si]12OCCN(CCO1)CCO2 |  |  | inactive |

| Structure (SMILES) | EC50 [µM] | IC50 [µM] | outcome |
| --- | --- | --- | --- |
| Cc1cn(C2CC(O[Si](C)(C)C(C)(C)C)C(/C=[N+](\C)[O-])O2)c(=O)[nH]c1=O (stereo not drawn) | > 200 | 37.2 |  |
| CC1=CC[P+](Cc2ccccc2)(c2ccccc2)C1 (stereo not drawn) | > 724 | 40.7 |  |
| CCOC(=O)CCC(NC(=O)c1ccc(CNc2nc3ccccc3nc2C(=O)OCC)cc1)C(=O)OCC (stereo not drawn) | > 200 | > 200 |  |
| O=C(O)C[C@@H]1C(=O)OC2C(COC(=O)c3cc(O)c(O)c(O)c3)OC(OC(=O)c3cc(O)c(O)c(O)c3)C(OC(=O)c3cc(O)c(O)c4c3C1[C@H](O)C(=O)O4)C2OC(=O)c1cc(O)c(O)c(O)c1 (stereo partly drawn) | 1.48 | 12.9 |  |
| CCCCCCCCCCCCOS(=O)(=O)O | > 871 | 195 |  |
| Cc1cc2c(O)c(c1)CN(Cc1ccccc1)Cc1cc(C)cc(c1O)CN(Cc1ccccc1)Cc1cc(C)cc(c1O)CN(Cc1ccccc1)C2 | > 50.1 | > 50.1 |  |
| COc1cc(C2(O)c3ccccc3C3=NCCN32)cc(OC)c1OC (stereo not drawn) | > 200 | > 200 |  |
| O=C(NC1C=Nc2ccccc2NC1=O)c1ccc(Cl)cc1 (stereo not drawn) | > 200 | > 200 |  |
| COC(=O)[C@@H]1C[C@H]2[C@H](c3ccccc3Br)[C@@H](OC(C)=O)[C@@H](OCc3ccccc3)ON2O1 | > 200 | > 200 |  |
| CCOC(=O)C(C)NC(=O)C(C)NC(=O)C(C)NC(=O)C(C)NC(=O)C(C)NC(=O)C(C)NC(=O)C(C)NC(=O)OCc1ccccc1 (stereo not drawn) (Cbz-AAAAAAA-OEt; configuration not given here) | > 200 | > 200 |  |
| Cc1cc(=O)c2c(O)cc3c(c2o1)CC=C(COC1OC(COC2OC(CO)C(O)C(O)C2O)C(O)C(O)C1O)CO3 (stereo not drawn) | > 417 | > 417 |  |
| O=C(CC(c1ccccc1)C1C(=O)C12CCCC2)c1ccccc1 (stereo not drawn) | > 81.3 | > 81.3 |  |
| O=C(/C=C\c1cccc2ccccc12)c1cccc2ccccc12 | > 8.91 | > 8.91 |  |
| CCCC1c2c(cc(=O)[nH]c2O)C(=O)N1Cc1ccccc1 (stereo not drawn) | > 63.1 | > 63.1 |  |
| CC(C(=O)O)c1ccc2c(c1)[nH]c1ccc(Cl)cc12 (stereo not drawn) | > 245 | 141 |  |
| Nc1c(Cl)ncnc1NCC1(CO)CCC1 | > 200 | 158 |  |
| CN1CCN(/C(N)=C(\C#N)C(=O)Nc2ccc(Cl)cc2)CC1 | > 200 | > 100 |  |
| CCC(=O)Oc1ccc2c(=O)c(-c3ccc(OC)cc3)c(CC)oc2c1 | > 200 | 25.1 |  |
| CC[C@@H]1NC(C(=O)OC)Cc2c1[nH]c1ccccc21 (stereo partly drawn) |  |  | inactive |
